# Laboratory results from patent US20070043104A1, “UII-modulating compounds and their use” (priority 2005, published 2007).
# Counter-ions that a name gives are not always drawn.
# Molecular target: T1, human urotensin II receptor (Homo sapiens, UniProt Q9UKP6)
# T1 construct: expressed in transfected cells; host or cells: NIH3T3 cells
# T1 sequence (Q9UKP6 1-389): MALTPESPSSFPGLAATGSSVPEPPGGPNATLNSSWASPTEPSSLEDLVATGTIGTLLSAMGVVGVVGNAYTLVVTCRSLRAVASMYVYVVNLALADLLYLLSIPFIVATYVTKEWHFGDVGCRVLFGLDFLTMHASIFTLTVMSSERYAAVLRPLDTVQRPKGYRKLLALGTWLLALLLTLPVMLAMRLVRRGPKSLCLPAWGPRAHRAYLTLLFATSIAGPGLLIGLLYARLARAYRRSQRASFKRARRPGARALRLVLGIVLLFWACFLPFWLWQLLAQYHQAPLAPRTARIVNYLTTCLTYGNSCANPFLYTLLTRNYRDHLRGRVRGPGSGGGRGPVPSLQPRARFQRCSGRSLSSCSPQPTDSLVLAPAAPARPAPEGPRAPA
# Experiment: Receptor Selection and Amplification (R-SAT) functional assay, NIH3T3 cells transfected with human urotensin II receptor and β-galactosidase marker
# Format: cell-based
# Conditions: for Emax: NIH3T3, Table 4, % efficacy normalized to UII at 100%; for EC50 / pEC50: eight doses in triplicate
# Description: The functional receptor assay, Receptor Selection and Amplification Technology (R-SAT™), was used (with minor modifications from the procedure described previously (Brann, M. R. U.S. Pat. No. 5,707,798, 1998; Chem. Abstr. 1998, 128, 111548) to screen compounds for efficacy at the UII receptor. The RSAT assay was conducted as described herein.
# Briefly, NIH3T3 cells were grown in tissue culture treated rollerbottles to 40-80% confluence in Dulbecco's modified Eagle's medium (DMEM) supplemented with 10% bovine calf serum (Hyclone) and 1% penicillin/streptomycin/glutamine (Invitrogen). Cells were transfected for 12-18 hours with the human urotensin II receptor and the β-galactosidase marker. After transfection, the cells were trypsinized, harvested and frozen in DMEM containing 10% DMSO. Frozen cells were later thawed and tested for a response to a control compound to perform quality control before initiation of pharmacological testing, ensuring the correct pharmacological response and sufficient sensitivity. To initiate the pharmacological assay, cells were thawed rapidly and prepared in DMEM media containing 0.4% calf serum (Hyclone), 30% UltraCulture (Biowhittaker), and 1% penicillin/streptomycin/glutamine (Invitrogen), and then plated at 10,000-40,000 cells per well of a 96½ area plate that contained either the test compounds or reference ligands. Cells were then grown in a humidified atmosphere with 5% ambient CO2 for five days. Media was then removed from the plates and marker gene activity was measured by the addition of the beta-galactosidase substrate ONPG (in PBS with 5% NP-40). The resulting colorimetric reaction was measured in a spectrophotometric plate reader (Titertek Inc.) at […].
# pEC50 represents the negative logarithm of the concentration of ligand that caused 50% activation of the basal receptor response. Percent activation was calculated as the difference between the absorbance measurements in the absence of added ligand compared with that in the presence of saturating concentrations of ligand normalized to the absorbance difference for the reference ligand, which was assigned a value of 100%.
# Results were determined in R-SAT assays and are expressed as pEC50, the negative of the log EC50 in molarity. Results are the average±standard deviation of 2-X determinations of the EC50 where each compound was tested in eight doses in triplicate.
# [1] = Table 4, negative of the log EC50 in molarity, average ± standard deviation of 2-5 determinations
# [2] = Table 3, negative of the log EC50 in molarity, average ± standard deviation (or range) of determinations
# [3] = Table 3, percent activation normalized to the reference ligand assigned 100%
Emax [%],EC50 [1] [nM],Molecule,further results
121 ± 31,1740,"CN(C)CCC(NC(=O)Cc1ccccc1)c1ccc2ccccc2c1 (stereo not shown) [C1, N-[3-Dimethylamino-1-(2-naphthyl)propyl]-2-phenylacetamide HCl]",
40 ± 3,575,"CN(C)CCC(NC(=O)Cc1ccc(C(F)(F)F)cc1)c1ccc2ccccc2c1 (stereo not shown) [C2, N-[3-Dimethylamino-1-(2-naphthyl)propyl]-2-(4-trifluoromethylphenyl)acetamide HCl]",
107 ± 22,603,"CN(C)CCC(NC(=O)CCc1ccccc1)c1ccc2ccccc2c1 (stereo not shown) [C4, N-[3-Dimethylamino-1-(2-naphthyl)propyl]-3-phenyl-propionamide HCl]",
75 ± 1,372,"CC(C(=O)NC(CCN(C)C)c1ccc2ccccc2c1)c1ccc(C(F)(F)F)cc1 (stereo not shown) [C5, N-[3-Dimethylamino-1-(2-naphthyl)propyl]-2-(4-trifluoromethylphenyl)propionamide HCl]",
116 ± 3,589,"CN(C)CCC(NC(=O)/C=C/c1ccccc1)c1ccc2ccccc2c1 (stereo not shown) [C7, N-[3-Dimethylamino-1-(2-naphthyl)propyl]-3-cinnamic amide HCl]",
117 ± 1,135,"CN(C)CCC(NC(=O)C=Cc1ccc(C(F)(F)F)cc1)c1ccc2ccccc2c1 (stereo not shown) [C8, N-[3-Dimethylamino-1-(2-naphthyl)propyl]-4-trifluoromethyl-cinnamic amide HCl]",
106 ± 16,380,"COc1ccc(C=CC(=O)NC(CCN(C)C)c2ccc3ccccc3c2)cc1 (stereo not shown) [C9, N-[3-Dimethylamino-1-(2-naphthyl)propyl]-4-methoxy-cinnamic amide HCl]",
115 ± 14,457,"CN(C)CCC(NC(=O)C#Cc1ccccc1)c1ccc2ccccc2c1 (stereo not shown) [C10, N-[3-Dimethylamino-1-(2-naphthyl)propyl]-3-phenylpropiolic amide HCl]",

# Further lines, the molecule ahead of its results:
Molecule,Emax [%],EC50 [1] [nM],further results
"COc1ccc(C=CC(=O)NC(CCN(C)C)c2ccc(Cl)cc2)cc1 (stereo not shown) [A9, N-[1-(4-Chlorophenyl)-3-dimethylamino-propyl]-4-methoxy-cinnamic amide HCl]",99 ± 4,513,
"CN(C)CCC(NC(=O)C#Cc1ccccc1)c1ccc(Cl)cc1 (stereo not shown) [A10, N-[1-(4-Chlorophenyl)-3-dimethylamino-propyl]-3-phenylpropiolic amide HCl]",124 ± 6,398,
"Cc1ccc(C(CCN(C)C)NC(=O)Cc2ccccc2)cc1 (stereo not shown) [B1, N-[3-Dimethylamino-1-(4-methylphenyl)propyl]-2-phenylacetamide HCl]",83 ± 11,4170,
"Cc1ccc(C(CCN(C)C)NC(=O)Cc2ccc(C(F)(F)F)cc2)cc1 (stereo not shown) [B2, N-[3-Dimethylamino-1-(4-methylphenyl)propyl]-2-(4-trifluoromethylphenyl)acetamide HCl]",25 ± 4,1120,
"COc1ccc(CC(=O)NC(CCN(C)C)c2ccc(C)cc2)cc1 (stereo not shown) [B3, N-[3-Dimethylamino-1-(4-methylphenyl)propyl]-2-(4-methoxyphenyl)acetamide HCl]",62 ± 5,5890,
"Cc1ccc(C(CCN(C)C)NC(=O)CCc2ccccc2)cc1 (stereo not shown) [B4, N-[3-Dimethylamino-1-(4-methylphenyl)propyl]-3-phenylpropionamide HCl]",73 ± 9,4570,
"Cc1ccc(C(CCN(C)C)NC(=O)CCc2ccc(C(F)(F)F)cc2)cc1 (stereo not shown) [B5, N-[3-Dimethylamino-1-(4-methylphenyl)propyl]-3-(4-trifluoromethylphenyl) propionamide HCl]",60 ± 6,2290,
"COc1ccc(CCC(=O)NC(CCN(C)C)c2ccc(C)cc2)cc1 (stereo not shown) [B6, N-[3-Dimethylamino-1-(4-methylphenyl)propyl]-3-(4-methoxyphenyl)propionamide HCl]",67 ± 14,5370,
"Cc1ccc(C(CCN(C)C)NC(=O)C=Cc2ccccc2)cc1 (stereo not shown) [B7, N-[3-Dimethylamino-1-(4-methylphenyl)propyl]cinnamic amide]",97 ± 6,1550,
"Cc1ccc(C(CCN(C)C)NC(=O)C=Cc2ccc(C(F)(F)F)cc2)cc1 (stereo not shown) [B8, N-[3-Dimethylamino-1-(4-methylphenyl)propyl]-4-trifluoromethyl-cinnamic amide HCl]",96 ± 1,437,
"COc1ccc(C=CC(=O)NC(CCN(C)C)c2ccc(C)cc2)cc1 (stereo not shown) [B9, N-[3-Dimethylamino-1-(4-methylphenyl)propyl]-4-methoxy-cinnamic amide HCl]",79 ± 14,2000,
"Cc1ccc(C(CCN(C)C)NC(=O)C#Cc2ccccc2)cc1 (stereo not shown) [B10, N-[3-Dimethylamino-1-(4-methylphenyl)propyl]-3-phenylpropiolic amide]",131,3090,
COc1ccc(CCC(=O)NC(CCN(C)C)c2ccc3ccccc3c2)cc1.Cl (stereo not shown) [C6],,,"Efficacy (Table 4, % efficacy normalized to UII at 100%): 113 ± 9%; pEC50 [1]: 5.85 ± 0.11"
(+)-N-[1-Chlorophenyl)-3-dimethylaminopropyl]-(R)-2-methoxy-2-phenyl-acetamide oxalate [(+) 5s],,,pEC50 [2]: 5.30 ± 0.07; Efficacy [3]: 112 ± 22%
N-[1-(4-Chlorophenyl)-3-dimethylaminopropyloxycarbonyl]-4-phenyl-amine [7f],,,pEC50 [2]: 6.44-6.67; Efficacy [3]: 43-75%
